In PubChem BioAssay AID256 (DTP/NCI, 2004) one finds T/C data, which are given here for 16 molecules.

The structures appear in SMILES notation. Several values for one entry are separate records, joined by “and”; a condition that tells them apart may be missing. Equal values may be shown once. Toxic doses and inconclusive results are not listed.

This test relates to CD2F1 mice, L1210 leukemia ip, survival T/C. Briefly: NCI In Vivo Anticancer Drug Screen. Data for tumor model L1210 Leukemia (intraperitoneal) in CD2F1 (CDF1) mice. The settings on record: higher = longer survival. In short, it runs like this:
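Read-out first: treated-group measurement over vehicle-control measurement, expressed as a ratio. Animals bore a transplanted tumor line and were dosed with compound or vehicle.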

The mark [1] stands for this setting: endpoint: mean survival time, dose: 50.0 mg/kg/injection, schedule: Q01DX005 (ip), vehicle: saline.
[2] abbreviates: endpoint: mean survival time, dose: 100.0 mg/kg/injection, schedule: Q04DX002 (ip), vehicle: saline with Tween-80.
Where [3] appears, read: endpoint: mean survival time, dose: 100.0 mg/kg/injection, schedule: Q01DX009 (ip), vehicle: saline with Tween-80.
The mark [4] stands for this setting: endpoint: mean survival time, dose: 200.0 mg/kg/injection, schedule: Q01DX009 (ip), vehicle: saline with Tween-80.
The mark [5] stands for this setting: endpoint: mean survival time, dose: 400.0 mg/kg/injection, schedule: Q01DX009 (ip), vehicle: saline with Tween-80.
Setting [6] is: endpoint: mean survival time, dose: 25.0 mg/kg/injection, schedule: Q01DX009 (ip), vehicle: water.
The mark [7] stands for this setting: endpoint: mean survival time, dose: 50.0 mg/kg/injection, schedule: Q01DX009 (ip), vehicle: water.

On to `CC1C(C)C1Cl` (configuration not stated), for which the T/C under setting [1] was 95 % of control; the T/C (endpoint: mean survival time, dose: 50.0 mg/kg/injection, schedule: Q01DX009 (ip), vehicle: saline) was 89 % of control; the T/C (endpoint: mean survival time, dose: 50.0 mg/kg/injection, schedule: Q04DX002 (ip), vehicle: saline) was 94 % of control; the T/C (endpoint: mean survival time, dose: 100.0 mg/kg/injection, schedule: Q01DX005 (ip), vehicle: saline) was 95 % of control; the T/C (endpoint: mean survival time, dose: 100.0 mg/kg/injection, schedule: Q01DX009 (ip), vehicle: saline) is 93 % of control; the T/C (endpoint: mean survival time, dose: 100.0 mg/kg/injection, schedule: Q04DX002 (ip), vehicle: saline) was 97 % of control. The T/C was 109 % of control (endpoint: mean survival time, dose: 200.0 mg/kg/injection, schedule: Q01DX005 (ip), vehicle: saline); 93 % of control (endpoint: mean survival time, dose: 200.0 mg/kg/injection, schedule: Q01DX009 (ip), vehicle: saline); 94 % of control (endpoint: mean survival time, dose: 200.0 mg/kg/injection, schedule: Q04DX002 (ip), vehicle: saline); 106 % of control (endpoint: mean survival time, dose: 400.0 mg/kg/injection, schedule: Q01DX005 (ip), vehicle: saline); 93 % of control (endpoint: mean survival time, dose: 400.0 mg/kg/injection, schedule: Q01DX009 (ip), vehicle: saline); 97 % of control (endpoint: mean survival time, dose: 400.0 mg/kg/injection, schedule: Q04DX002 (ip), vehicle: saline).

As for `CC(=O)Nc1nc(Br)c2ccccc2c1-c1ccc(N(CCO)CCO)cc1`, the T/C (endpoint: mean survival time, dose: 25.0 mg/kg/injection, schedule: Q04DX003 (ip), vehicle: DMSO) is 90 % of control; the T/C (endpoint: mean survival time, dose: 50.0 mg/kg/injection, schedule: Q04DX003 (ip), vehicle: DMSO) was 90 % of control; the T/C (endpoint: mean survival time, dose: 100.0 mg/kg/injection, schedule: Q04DX003 (ip), vehicle: DMSO) is 94 % of control; the T/C (endpoint: mean survival time, dose: 200.0 mg/kg/injection, schedule: Q04DX003 (ip), vehicle: DMSO) was 87 % of control.

For `COc1ccccc1N=Nc1c(O)n(-c2ccccc2Cl)c(=S)n(-c2ccccc2OC)c1=O`, the T/C is 105 % of control (endpoint: mean survival time, dose: 25.0 mg/kg/injection, schedule: Q04DX002 (ip), vehicle: saline with Tween-80); 90 % of control (endpoint: mean survival time, dose: 50.0 mg/kg/injection, schedule: Q04DX002 (ip), vehicle: saline with Tween-80); 94 % of control under setting [2].

Regarding `O=[N+]([O-])c1cccc(S(=O)(=O)Oc2ccc(-c3ccccc3)cc2)c1`, the T/C runs as follows: under setting [3], 87 % of control; under setting [4], 91 % of control; under setting [5], 89 % of control.

Turning to `O=C1C=C(Nc2ccccc2)CCC1`, the T/C is 94 % of control under setting [3], 100 % of control under setting [4] and 97 % of control under setting [5].

Take `CC(Nc1ccccc1)C(=O)N1CCC(Nc2ccccc2)CC1` (configuration not stated): the T/C is, setting by setting: under setting [2], 94 % of control; (endpoint: mean survival time, dose: 200.0 mg/kg/injection, schedule: Q04DX002 (ip), vehicle: saline with Tween-80) 94 % of control; (endpoint: mean survival time, dose: 400.0 mg/kg/injection, schedule: Q04DX002 (ip), vehicle: saline with Tween-80) 90 % of control.

Consider `O=[N+]([O-])c1ccc(N=Cc2ccc3c(c2)OCO3)cc1`, for which the T/C was 106 % of control (endpoint: mean survival time, dose: 100.0 mg/kg/injection, schedule: Q01DX001 (ip), vehicle: Klucel (hydroxypropylcellulose) (HPC)); 96 % of control (endpoint: mean survival time, dose: 100.0 mg/kg/injection, schedule: Q01DX009 (ip), vehicle: Klucel (hydroxypropylcellulose) (HPC)); 101 % of control (endpoint: mean survival time, dose: 200.0 mg/kg/injection, schedule: Q01DX001 (ip), vehicle: Klucel (hydroxypropylcellulose) (HPC)); 97 % of control (endpoint: mean survival time, dose: 200.0 mg/kg/injection, schedule: Q01DX009 (ip), vehicle: Klucel (hydroxypropylcellulose) (HPC)); 96 % of control (endpoint: mean survival time, dose: 400.0 mg/kg/injection, schedule: Q01DX001 (ip), vehicle: Klucel (hydroxypropylcellulose) (HPC)); 96 % of control (endpoint: mean survival time, dose: 400.0 mg/kg/injection, schedule: Q01DX009 (ip), vehicle: Klucel (hydroxypropylcellulose) (HPC)).

Take `CC(=[N-])CC(C)=O.CC(=[N-])CC(C)=O.[Cu+2]`: the T/C is 100 % of control (endpoint: mean survival time, dose: 3.13 mg/kg/injection, schedule: Q01DX009 (ip), vehicle: saline with Tween-80); 95 % of control (endpoint: mean survival time, dose: 6.25 mg/kg/injection, schedule: Q01DX009 (ip), vehicle: saline with Tween-80); 90 % of control (endpoint: mean survival time, dose: 12.5 mg/kg/injection, schedule: Q01DX009 (ip), vehicle: saline with Tween-80).

On to `Cn1cnc([N+](=O)[O-])c1[Se]c1nc(N)nc2c1ncn2C1OC(CO)C(O)C1O` (configuration not stated), for which the T/C runs as follows: (endpoint: mean survival time, dose: 2.0 mg/kg/injection, schedule: Q01DX009 (ip), vehicle: distilled water + Tween-80) 114 % of control; (endpoint: mean survival time, dose: 4.0 mg/kg/injection, schedule: Q01DX009 (ip), vehicle: distilled water + Tween-80) 112 % of control; (endpoint: mean survival time, dose: 8.0 mg/kg/injection, schedule: Q01DX009 (ip), vehicle: distilled water + Tween-80) 108 % of control and 110 % of control; (endpoint: mean survival time, dose: 12.5 mg/kg/injection, schedule: Q01DX005 (ip), vehicle: saline) 166 % of control; (endpoint: mean survival time, dose: 25.0 mg/kg/injection, schedule: Q01DX005 (ip), vehicle: saline) 175 % of control; under setting [1], 176 % of control. Further, the T/C (endpoint: mean survival time, dose: 64.0 mg/kg/injection, schedule: Q01DX009 (ip), vehicle: distilled water + Tween-80) is 98 % of control.

`CN(C)CCCNc1cc(O)c2c(c1O)C(=O)c1ccccc1C2=O`: the T/C under setting [6] was 98 % of control; the T/C under setting [7] was 98 % of control; the T/C (endpoint: mean survival time, dose: 100.0 mg/kg/injection, schedule: Q01DX009 (ip), vehicle: water) is 95 % of control; the T/C (endpoint: mean survival time, dose: 200.0 mg/kg/injection, schedule: Q01DX009 (ip), vehicle: water) is 98 % of control.

For the molecule `CC(=NCC(=O)O)c1ccccc1`, the T/C runs as follows: (endpoint: mean survival time, dose: 25.0 mg/kg/injection, schedule: Q04DX003 (ip), vehicle: saline) 93 % of control; (endpoint: mean survival time, dose: 50.0 mg/kg/injection, schedule: Q04DX003 (ip), vehicle: saline) 100 % of control; (endpoint: mean survival time, dose: 100.0 mg/kg/injection, schedule: Q04DX003 (ip), vehicle: saline) 100 % of control.

In the case of `O=C1C2C(C(=O)N1c1ccc(OCc3ccccc3)cc1)C1c3ccccc3C2C2CCCCN21` (configuration not stated), the T/C runs as follows: under setting [6], 100 % of control; under setting [7], 86 % of control.

As for `O=[N+]([O-])c1cccc(N=Nn2cccc2)c1`, the T/C (endpoint: mean survival time, dose: 25.0 mg/kg/injection, schedule: Q01DX009 (ip), vehicle: saline with Tween-80) is 86 % of control; the T/C (endpoint: mean survival time, dose: 50.0 mg/kg/injection, schedule: Q01DX009 (ip), vehicle: saline with Tween-80) was 106 % of control; the T/C (endpoint: mean survival time, dose: 100.0 mg/kg/injection, schedule: Q01DX001 (ip), vehicle: saline with Tween-80) was 98 % of control; the T/C under setting [3] is 102 % of control.

Consider `CCSC(CC(O)C(O)C(O)CO)n1cnc2c(Cl)ncnc21` (configuration not stated), for which the T/C was 100 % of control (endpoint: mean survival time, dose: 12.5 mg/kg/injection, schedule: Q01DX005 (ip), vehicle: water); 105 % of control (endpoint: mean survival time, dose: 25.0 mg/kg/injection, schedule: Q01DX005 (ip), vehicle: water); 102 % of control (endpoint: mean survival time, dose: 50.0 mg/kg/injection, schedule: Q01DX005 (ip), vehicle: water); 107 % of control (endpoint: mean survival time, dose: 100.0 mg/kg/injection, schedule: Q01DX005 (ip), vehicle: water); 104 % of control (endpoint: mean survival time, dose: 200.0 mg/kg/injection, schedule: Q01DX005 (ip), vehicle: water).

For `COC(CNC1=C(C)C(=O)C2=C(C1=O)[C@H](COC(N)=O)[C@]1(OC)[C@@H]3N[C@@H]3CN21)OC`, the T/C is, setting by setting: (endpoint: mean survival time, dose: 1.5 mg/kg/injection, schedule: Q01DX001 (ip), vehicle: water) 118 % of control; (endpoint: mean survival time, dose: 3.0 mg/kg/injection, schedule: Q01DX001 (ip), vehicle: water) 119 % of control and 109 % of control; (endpoint: mean survival time, dose: 6.0 mg/kg/injection, schedule: Q01DX001 (ip), vehicle: water) 119 % of control; (endpoint: mean survival time, dose: 24.0 mg/kg/injection, schedule: Q01DX001 (ip), vehicle: water) 151 % of control and 296 % of control; (endpoint: mean survival time, dose: 48.0 mg/kg/injection, schedule: Q01DX001 (ip), vehicle: water) 86 % of control.

Turning to `O=C(O)C1CCCCC1C(=O)O.[NH-]C1CCC1.[NH2-].[Pt+2]` (configuration not stated), the T/C was 107 % of control (endpoint: median survival time, dose: 3.12 mg/kg/injection, schedule: Q04DX003 (ip), vehicle: distilled water + Tween-80); 102 % of control (endpoint: median survival time, dose: 6.25 mg/kg/injection, schedule: Q04DX003 (ip), vehicle: distilled water + Tween-80); 106 % of control (endpoint: median survival time, dose: 12.5 mg/kg/injection, schedule: Q04DX003 (ip), vehicle: distilled water + Tween-80); 102 % of control (endpoint: median survival time, dose: 25.0 mg/kg/injection, schedule: Q04DX003 (ip), vehicle: distilled water + Tween-80); 103 % of control (endpoint: median survival time, dose: 50.0 mg/kg/injection, schedule: Q04DX003 (ip), vehicle: distilled water + Tween-80).
